We go through five compounds from PMC9219098 (ACS Omega, 2022).

Read-outs that look alike come from different tables or passages of the source.

The target in the assay is AChE (Homo sapiens, UniProt P22303). Kind of assay: In vitro AChE enzyme assay. The assay is classed as biochemical.
Chain of AChE (P22303 32-614): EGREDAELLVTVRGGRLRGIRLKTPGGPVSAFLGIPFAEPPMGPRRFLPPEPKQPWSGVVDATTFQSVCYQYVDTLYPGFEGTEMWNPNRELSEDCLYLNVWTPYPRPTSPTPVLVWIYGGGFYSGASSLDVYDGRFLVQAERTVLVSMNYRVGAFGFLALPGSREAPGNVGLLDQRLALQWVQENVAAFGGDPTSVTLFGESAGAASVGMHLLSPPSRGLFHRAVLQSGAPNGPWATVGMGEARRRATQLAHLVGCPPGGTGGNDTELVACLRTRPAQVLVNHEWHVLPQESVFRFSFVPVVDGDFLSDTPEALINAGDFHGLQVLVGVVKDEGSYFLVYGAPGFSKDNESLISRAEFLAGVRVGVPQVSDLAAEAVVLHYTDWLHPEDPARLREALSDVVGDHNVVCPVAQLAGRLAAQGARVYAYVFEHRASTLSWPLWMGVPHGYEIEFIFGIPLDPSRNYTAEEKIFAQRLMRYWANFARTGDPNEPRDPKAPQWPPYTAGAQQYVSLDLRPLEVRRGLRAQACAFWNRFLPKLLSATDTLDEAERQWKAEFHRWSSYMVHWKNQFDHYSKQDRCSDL

The compound `CC(=O)C=Cc1ccc(C(F)(F)F)cc1` [CHEMBL74630, 1-[4-(trifluoromethyl)phenyl]but-1-en-3-one] gave an IC50 of 26.3 ± 2.18 µM. As for `COC(F)(F)C(F)(F)C(F)(F)C(F)(F)F` [CHEMBL500823, methyl nonafluorobutyl ether], the half-maximal inhibitory concentration (IC50) (Ellman method, ACTI substrate, mean ± SD, triplicate) was 52.6 ± 4.14 µM. Compound `O=C(c1ccccc1)C(F)(F)F` [CHEMBL293277, trifluoroacetophenone] had a half-maximal inhibitory concentration (IC50) of 4.61 ± 0.34 µM.

For the compound `FC(F)(F)C(F)(F)C(F)(F)C(F)(F)C(F)(F)C(F)(F)F` [CHEMBL1200607, perflexane], the 50% inhibitory concentration (IC50) worked out at 50.7 ± 3.73 µM. Against the preceding compound, the IC50 is about 11-fold higher. Take `Cc1cccc(C(=O)C(F)(F)F)c1` [CHEMBL86868, 3′-methyl-2,2,2-trifluoroacetophenone, reference compound]: the half-maximal inhibitory concentration (IC50) was found to be 0.35 ± 0.03 µM.
